Data published in PMC10860144, “Exploring the Dispersion and Electrostatic Components in Arene–Arene Interactions between Ligands and G4 DNA to Develop G4-Ligands” (Journal of Medicinal Chemistry, 2024).
Values after ≈ are worked out from the molar mass of the structure shown. Values joined by “and” are separate entries in the source; they are usually repeats but may differ in a detail not shown here. Equal entries are not always repeated.

Columns and labels:
[1] = Intrinsic clearance in rat hepatocytes; format: in vitro ADME
Protocol: (§1) All compounds (2–11, 25–29) were screened for their logD and solubility at pH 7.4 and for their intrinsic clearance in rat hepatocytes and human microsomes (Table S2). […] Replacing the basic amine side chain to a methyl substituent in the quinazolines (25–29) still retained good solubility (134 to over 1000 μM) but increased clearance in both rat hepatocytes and human microsomes. The logD was low for compounds with a basic amine side chain (2–11) and increased slightly when the amine was replaced with a methyl (25–29). As expected, additional substituents also affected the logD with the chloro-substituents increasing logD the most.
(§2) a Intrinsic clearance in rat hepatocytes ((μL/min)/10^6 cells).b Intrinsic clearance in human microsomes (μL/min/mg). […]

[2] = logD at pH 7.4; format: physicochemical
Protocol: (§3) Physicochemical properties
(§4) The Physicochemical profiling (LogD, Solubility, Caco-2 cell permeability) was performed as previously
(§5) described.8 Cell viability was performed as described below.
(§6) Table S2. Pharmacokinetic Properties
(§7) Compound Structure logD, Solubility, Rat hepsa Human mics b

[3] = molecular target: Pu24T c-MYC G4 structure; experiment: Kd for binding to the Pu24T c-MYC G4 structure (supplementary CSV); parameters: species or system human
Protocol: (§8) 5′-Cy5 labeled G4 DNAs for this study were purchased from Eurofins Genomics. Stock solutions were prepared in water at 100 μM concentration. The sequences used are listed in Supporting Information Table S1. The G4 DNA sequences were folded in KCl buffer (10 mM phosphate, 100 mM KCl, pH 7.4) by heating at 95 °C for 5 min and then cooling to room temperature. All the experiments were performed in 10 mM phosphate pH 7.4, 100 mM KCl, and 0.05% Tween20. The labeled DNA concentration is held constant at 25 nM, and ligand concentration is varied depending on ligands Kd (16 1:3 dilutions). The samples were loaded into standard MST graded glass capillaries and initial fluorescence intensity of the capillary was measured using Monolith NT.115 (Nano Temper, Germany) with 20% LED power. The change in fluorescence with ligand’s concentrations were plotted in Excel and fitted through nonlinear equation to obtain the binding constants.
The Supporting Information is available free of charge at https://pubs.acs.org/doi/10.1021/acs.jmedchem.3c02127. • Experimental procedures and data; assay data, computational results, and all cell data; NMR (^1H and ^13C) spectra for all compounds (with the exception of a few intermediates); and HPLC UV traces for the final compounds (PDF) • Molecular formula strings and Kd values for binding to the Pu24T c-MYC G4 structure (CSV)

[4] = Intrinsic clearance in human microsomes; format: in vitro ADME; conditions: read-out: Human mics: intrinsic clearance in human microsomes
Protocol: as §1, §2

[5] = molecular target: c-MYC Pu22 G4 DNA; experiment: Microscale thermophoresis (MST), c-MYC Pu22 G4 DNA; format: binding, human; conditions: Cy5-labeled c-MYC Pu22 G4 DNA 25 nM; pH 7.4, 100 mM KCl; read-out: apparent Kd (MST)
Protocol: To evaluate the apparent binding affinities (Kd) for the compound series, we next used microscale thermophoresis (MST) with fluorescently labeled c-MYC Pu22 G4 DNA (Table S1). Overall, the measured MST binding results for compounds 2–11 corresponded well with the results from the FRET assay (Figures 2B and S3).
as §8, with “constants. […]” for “constants.”
Microscale Thermophoresis (MST)
5'- Cy5 labelled G4 DNAs for this study were purchased from Eurofins Genomics. Stock solutions were prepared in water at […] concentration. The sequences used are listed in supplementary Table S1. The G4 DNA sequences were folded in KCl buffer (10 mM phosphate, 100 mM KCl, pH 7.4) by heating at 95 °C for 5 min and then cooling to room temperature. All the experiments were performed in 10 mM phosphate pH 7.4, 100 mM KCl, 0.05% Tween20. The labelled DNA concentration is held constant at 25 nM and ligand concentration is varied depending on ligands Kd (sixteen 1:3 dilutions). The samples were loaded into standard MST graded glass capillaries and initial fluorescence intensity of the capillary were measured using Monolith NT.115 (Nano Temper, Germany) with 20% LED power. The change in fluorescence with ligand's concentrations were plotted in Excel and fitted through non-linear equation to obtain the binding constants.
(1 picture or pasted object on this page, not shown here)

[6] = Solubility at pH 7.4; format: physicochemical
Protocol: as §3, §4, §5, §6, §7

[7] = test system: G4 structure on DNA template (PEPu24T); experiment: Taq polymerase stop (primer extension) assay, G4 template; format: biochemical; conditions: compound 0.24 μM; compared to DMSO control
Excerpt: To challenge all the synthesized compounds (2–11 and 25–29) in a more intricate context, we conducted a Taq polymerase stop assay to evaluate their capacity to impede DNA synthesis through G4 stabilization. In this assay, we compared the progress of the Taq DNA polymerase along two distinct DNA templates: one with a G4 structure (Figure 5) and another serving as a non-G4 control (Figure S21). If an external species (e.g., G4 ligand) binds and stabilizes the G4 structure, the polymerase will be partially halted. The extent of this DNA polymerase stalling is dependent on the ability of the compound to stabilize the G4 on the DNA template. The increased G4 stabilization can be detected as a reduction in the amount of newly synthesized DNA that has reached the end of the DNA template (full-length/end-product). Analysis of these shorter terminated DNA products will give information about the precise location of the DNA polymerase stalling with a single nucleotide resolution. If the ligand imposes little to no stabilization or binding, the G4 is readily resolved by the DNA polymerase, and no difference in the amount of DNA end-product can therefore be expected upon the addition of the compound.
Templates for the primer extension assay were created by annealing 25 nt TET labeled primer (1 μM final concentration) to either PEPu24T or a mutated sequence not forming a G4, PEPu24T mut, (1.25 μM final concentration) in 100 mM KCl by heating to 95 °C for 5 min and slowly cooling to room temperature. […] Compounds were added in the indicated concentration and incubated on ice for 10 min before starting the reaction by adding dNTPs (100 μM final concentration) to the reaction and transferring it to 37 °C. Reactions were stopped after 15 min by addition of 10 μL of formamide loading buffer (0.5% SDS, 25 mM EDTA, 95% v/v formamide and xylene-cyanol). Samples were then loaded on a 12% polyacrylamide gel containing 7 M urea and 25% formamide and imaged using an Amersham Typhoon. The images were quantified using ImageJ 1.53e software, and the percentage of full-length product compared to a sample without compound was calculated.
Templates for the primer extension assay were created by annealing 25nt TET labelled primer (1 µM final concentration) to either PEPu24T or a mutated sequence not forming a G4, PEPu24T mut, (1.25 µM final concentration) in 100 mM KCl by heating to 95 °C for 5 min and slowly cooling to room temperature. The reaction mixture (10 µl) contained 1X Taq Buffer with KCl (10 mM Tris-HCl pH 8.8, 50 mM KCl, detergent), 25 mM MgCl2, […]
[…] Compounds were added in the indicated concentration and incubated on ice for 10 min before starting the reaction by adding dNTPs (100 µM final concentration) to the reaction and transferring it to 37 °C. Reactions were stopped after 15 min by addition of 10 µl of formamide loading buffer (0,5% SDS, 25 mM EDTA, 95% v/v formamide and xylene-cyanol). Samples were then loaded on a 12% polyacrylamide gel containing 7 M urea and 25% formamide and imaged using an Amersham™ Typhoon™.
The images were quantified using ImageJ 1.53e software and the percentage of full-length product compared to a sample without compound was calculated. […]

Rat heps: intrinsic clearance in rat hepatocytes [1]	logD [2]	Kd [3] [nM]	microsomal CLint [4] [µL/min/mg]	Kd [5]	solubility [6] [µM]	full-length DNA product [7]	SMILES
4 (μL/min)/106 cells	0	150 ± 10	< 3	150 nM	858 (≈ 302 µg/mL)	~45%	Cc1cc(NCCCN(C)C)nc(Nc2nc(C)c3ccccc3n2)n1 [Compound 3, N4-(3-(Dimethylamino)propyl)-6-methyl-N2-(4-methylquinazolin-2-yl)pyrimidine-2,4-diamine]
< 1 (μL/min)/106 cells	0.4	100 ± 10	< 3	100 nM	> 1000	about 30%	Cc1ccc2nc(Nc3nc(C)cc(NCCCN(C)C)n3)nc(C)c2c1 [Compound 4, N4-(3-(Dimethylamino)propyl)-N2-(4,6-dimethylquinazolin-2-yl)-6-methylpyrimidine-2,4-diamine]
< 1 (μL/min)/106 cells	0.1	90 ± 10	< 3	90 nM	> 1000	about 30%	COc1ccc2nc(Nc3nc(C)cc(NCCCN(C)C)n3)nc(C)c2c1 [Compound 6, N4-(3-(Dimethylamino)propyl)-N2-(6-methoxy-4-methylquinazolin-2-yl)-6-methylpyrimidine-2,4-diamine]
1 (μL/min)/106 cells	0.9	170 ± 20	< 3	170 nM	990 (≈ 382 µg/mL)	about 30%	Cc1cc(NCCCN(C)C)nc(Nc2nc(C)c3cc(Cl)ccc3n2)n1 [Compound 7, N2-(6-Chloro-4-methylquinazolin-2-yl)-N4-(3-(dimethylamino)propyl)-6-methylpyrimidine-2,4-diamine]
17 (μL/min)/106 cells	0.5	> 10000	< 3	> 10000 nM	871 (≈ 306 µg/mL)	–	Cc1cc(NCCCN(C)C)nc(Nc2nc3ccccc3nc2C)n1 [Compound 9, N4-(3-(Dimethylamino)propyl)-6-methyl-N2-(3-methylquinoxalin-2-yl)pyrimidine-2,4-diamine]
19 (μL/min)/106 cells	1.4	2300 ± 500	< 3	2300 nM and 2260 nM	838 (≈ 318 µg/mL)	–	Cc1cc(NCCCN(C)C)nc(Nc2nc3cc(C)c(C)cc3nc2C)n1 [Compound 10, N4-(3-(Dimethylamino)propyl)-6-methyl-N2-(3,6,7-trimethylquinoxalin-2-yl)pyrimidine-2,4-diamine]
6 (μL/min)/106 cells	2.3	3900 ± 700	< 3	3900 nM and 3850 nM	646 (≈ 272 µg/mL)	–	Cc1cc(NCCCN(C)C)nc(Nc2nc3cc(Cl)c(Cl)cc3nc2C)n1 [Compound 11, N2-(6,7-Dichloro-3-methylquinoxalin-2-yl)-N4-(3-(dimethylamino)propyl)-6-methylpyrimidine-2,4-diamine]
17 (μL/min)/106 cells	1.8	> 15000	71	> 15000 nM	> 1000	–	Cc1cc(C)nc(Nc2nc(C)c3ccccc3n2)n1 [Compound 25, N-(4,6-Dimethylpyrimidin-2-yl)-4-methylquinazolin-2-amine]
20 (μL/min)/106 cells	2.2	3300 ± 300	84	3300 nM	951 (≈ 266 µg/mL)	–	Cc1ccc2nc(Nc3nc(C)cc(C)n3)nc(C)c2c1 [Compound 26, N-(4,6-Dimethylpyrimidin-2-yl)-4,6-dimethylquinazolin-2-amine]
34 (μL/min)/106 cells	1.9	3600 ± 700	22	3600 nM	271 (≈ 80 µg/mL)	–	COc1ccc2nc(Nc3nc(C)cc(C)n3)nc(C)c2c1 [Compound 28, N-(4,6-Dimethylpyrimidin-2-yl)-6-methoxy-4-methylquinazolin-2-amine]
9 (μL/min)/106 cells	2.4	> 15000	56	> 15000 nM	134 (≈ 40.2 µg/mL)	–	Cc1cc(C)nc(Nc2nc(C)c3cc(Cl)ccc3n2)n1 [Compound 29, 6-Chloro-N-(4,6-dimethylpyrimidin-2-yl)-4-methylquinazolin-2-amine]
